Assay results reported in patent USRE38723E1, “Haloalkyl derivatives of reporter molecules used to analyze metabolic activity in cells” (Molecular Probes, Inc., priority 1991, dated 2005).

Key:
[1] = tested on: lacZ positive CRE BAG 2 cells; experiment: Cellular retention after loading by hypoosmotic shock (Example 12); type: cell-based
Method: 5-Chloromethylfluorescein di-β-D-galactoside (CMFDG) (Example 1) is dissolved in DMSO to get 20 mM stock solution. A 40 mM stock solution offluorescein di-β-D-galaetoside (FDG) (Molecular Probes) is also made in DMSO as a control. The stock solutions are kept sealed in brown reagent bottles and stored at −20° C.
• (A) FCS-PBS Solution: Phosphate buffered saline (GIBCO), 4% fetal calf serum, 10 mM HEPES, pH 7.2 • (B) Staining Solution: CMFDG: 200 μL of stock solution is diluted with distilled water to 4 mL to get a 1 mM staining solution. FDG: 400 μL of stock solution is diluted to 4 mL with distilled water to get a 4 mM staining solution. 4. Staining and Examination of Cells:
Cells grown on coverslips are transferred to a Petri dish containing 3 mL of FCS-PBS solution and then incubated at 37° C. for 10 minutes. 3 mL of prewarmed (37° C.) 1 mM CMFDG staining solution is added to give a final dye concentration of 0.5 mM The solutions are mixed rapidly. The cells are incubated at 37° C. for exactly one minute. To stop the loading, the cells are transferred to a 1.8 mL of ice-cold FCS-PBS solution. FDG is loaded into cells by using the same procedure except that the final dye concentrations is 2 mM. Cells are then incubated under normal culture conditions to examine the dye retention. Cells are examined without washing at the desired time for their fluorescence under a Zeiss microscope equipped with a FITC filter set (EX 485 nm/EM 530 nm).

[2] = tested on: lacZ-positive yeast strains EG123 and HR125-5d; experiment: Measurement of lacZ marker gene expression in transformed yeast (Example 13); type: cell-based, Saccharomyces cerevisiae
Method: Because the CMFDG substrate generates a product that is so well retained by cells (Examples 11 and 12), it can be used for quantitative measurements of lacZ expression. • 1. A series of lacZ gene containing plasmids, each with a modified yeast promoter are used. When transferred into the appropriate strains of Saccharomyces cerevisiae, each plasmid confers a different level of lacZ gene expression. Yeast strains EG123 and HR125-5d, transformed with these plasmids, are grown in special minimal medium for plasmid maintenance and, after reaching the appropriate level of growth, are assayed for lacZ gene expression as measured by β-galactosidase activity. • 2. The β-galactosidase activity of one aliquot of these transformed yeast cells is measured using o-nitrophenyl-β-D-galactopyranoside (ONPG). • 3. Another aliquot of yeast cells is loaded with the fluorogenic substrate CMFDG as indicated in Example 12. Following washing to remove any dye that has leaked from the cells, the fluorescence intensity of the remaining cells as measured in a CytoFluor 2300 fluorescence plate reader (Millipore) can be measured over time. […] The amount of increase over time can be calculated from the slope of the plotted increase using linear regression. Each yeast strain accumulates fluorescent product at a characteristic rate, as reflected in the differences in the slopes of the various lines. • 4. […]

NIH 3T3 cells = experiment: Cytotoxicity (loss of fluorescence) assay using CMFDG (Example 15); type: cell-based; conditions: 10 μM for 30 minutes at 37° C.
Method: 1) Reagents 5-Chloromethylfluorescein di-β-D-galactopyranoside (CMFDG) (Example 1) and 7-(β-D-galactopyranosyloxy)-4-chloromethylcoumarin (Cl-MUG) (Example 3) are separately dissolved at 10 mM anhydrous DMSO and stored frozen at −20° C. until needed. Saponin is dissolved in PBS at a concentration of 0.04%.
NIH/3T3 cells (lacZ negative) and CRE BAG 2 cells (3T3 cells transformed with a retrovirus containing latZ gene) are employed for cellular assays. Both cell lines can be obtained from American Type Culture Collection Co., Rockville, Md. The cells are grown in a humidified atmosphere of 5% CO2 in Dulbecco's modified Eagle's medium supplemented with 10% calf serum, 50 μg/mL gentamicin, 300 μg/mL L-glutamine and 10 mM HEPES pH7.4.
The experiment is most conveniently performed in a CytoFluor™ 2300 fluorescence plate reader (Millipore) but can be performed qualitatively on a microscope slide or quantitatively in a flow cytometery, or in any system that permits washing of the cells following addition of the cytotoxic agent. […] Fluorescence of each well is determined using a 485 nm excitation filter, a 530 nm emission filter and sensitivity setting 1. […] Loss of fluorescence from the sample is correlated with the loss of integrity of the membrane and thus the cytotoxicity of the reagent.

[3] = tested on: NIH/3T3 cells and CRE BAG 2 cells; conditions: 500 μM staining medium for 24 hours
Description: (§1) The same cell lines as used in Example 11 are used for these experiments.

[4] = tested on: NIH/3T3 cells and CRE BAG 2 cells; experiment: Cytotoxicity of CMFDG staining medium (Example 12)
Description: as §1

O=C1OC2(c3ccc(O[C@@H]4O[C@H](CO)[C@H](O)[C@H](O)[C@H]4O)cc3Oc3cc(O[C@@H]4O[C@H](CO)[C@H](O)[C@H](O)[C@H]4O)ccc32)c2ccc(CCl)cc21 [CMFDG, 5-chloromethylfluorescein di-β-D-galactopyranoside]
staining of cells after 10 minutes incubation ([1]; 0.5 mM CMFDG versus 2 mM FDG, hypoosmotic shock loading): very well stained and much brighter
stained cells apparently as bright as after 10 minutes incubation ([1]; after incubation for 4 hours, 0.5 mM): more than 70%
fluorescence plotted over time ([2]; each lacZ-positive yeast strain, CytoFluor 2300 plate reader): linear increase in fluorescence
fluorescence intensity over time versus level of lacZ expression (ONPG assay) ([2]; transformed yeast cells): correlates well
fluorescence of loaded cells (NIH 3T3 cells): brightly fluorescent
cell morphology [3]: morphologically normal
population doubling time versus control [3]: same population doubling time
cytotoxicity [4]: no cytotoxicity
